Drawing on US11198687B2, “Heteroaryl allosteric modulators of nicotinic acetylcholine receptors” (Merck Sharp & Dohme Corp., priority 2017, dated 2021), this text covers EC50 for 23 compounds.

Read-outs that look alike come from different tables or passages of the source.

The assay deals with human α7 nAChR (Homo sapiens, UniProt P36544). The experiment in a line: Automated patch-clamp electrophysiology functional assay (Assay A). In kind it is cell-based. The following applies: IonFlux HT whole-cell population patch, HEK cell line stably expressing human RIC-3 and human α7, 40 μM acetylcholine. The method, then: The α7 nAChR positive allosteric modulator (PAM) activity of the present compounds may be tested using assays known in the art. […] The assay was performed using the IonFlux HT in a whole-cell, population patch configuration. See Golden et al. Assay Drug Dev. Technol. (2011) 9:608-619. The compounds were assessed for their ability to modulate the function of the human α7 nAChR stably expressed in a HEK cell line both in the presence, and in the absence of the natural α7 agonist acetylcholine. By performing a series of such measurements at different concentrations, the effective concentration of the α7 nAChR PAMs (EC50) was determined. See Spencer et al. Assay Drug Dev. Technol. (2012) 10:313-324.
Chain of human α7 nAChR (P36544 23-502): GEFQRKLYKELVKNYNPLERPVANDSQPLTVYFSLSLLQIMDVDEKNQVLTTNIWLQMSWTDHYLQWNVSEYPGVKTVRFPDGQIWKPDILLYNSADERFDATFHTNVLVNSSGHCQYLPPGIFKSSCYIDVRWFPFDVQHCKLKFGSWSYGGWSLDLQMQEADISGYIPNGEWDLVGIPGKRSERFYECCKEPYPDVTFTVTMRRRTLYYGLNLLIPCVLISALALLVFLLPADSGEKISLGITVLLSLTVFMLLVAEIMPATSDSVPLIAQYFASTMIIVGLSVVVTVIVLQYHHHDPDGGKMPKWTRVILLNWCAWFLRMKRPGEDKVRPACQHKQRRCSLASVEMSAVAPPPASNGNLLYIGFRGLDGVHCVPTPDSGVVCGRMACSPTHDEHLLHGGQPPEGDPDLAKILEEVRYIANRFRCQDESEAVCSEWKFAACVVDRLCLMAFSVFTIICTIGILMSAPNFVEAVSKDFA
Direct activation of α7 (agonism), and potentiation of acetylcholine-evoked α7 currents was determined as follows:
Automated Patch-Clamp Electrophysiology Functional Assay (Assay A)
Automated patch-clamp electrophysiology was performed using the IonFlux HT (Fluxion Biosciences Inc., San Francisco, Calif.) in the whole-cell, population patch configuration. Test compounds were assessed for their ability to modulate the function of the α7 nicotinic acetylcholine receptor both in the presence, and in the absence of the natural α7 agonist acetylcholine. A HEK cell line stably expressing both human RIC-3 and human α7 (PrecisION hnAChR α7/RIC-3, Eurofins Pharma, St. Charles, Mo.) was cultured in 175 cm^2 triple-layer tissue culture flasks to no more than 90% confluency in DMEM/F-12 growth media supplemented with 10% heat-inactivated fetal bovine serum, 1% non-essential amino acids, 0.625 μg/mL Puromycin, and 400 μg/mL Geneticin. Immediately prior to assay, cells were detached by first aspirating growth media, rinsing with Dulbecco's phosphate buffered saline, and then adding 10 mL of Accutase (Innovative Cell Technologies, San Diego, Calif.) to the flask and then incubating at 37° C. for 5 minutes. Detached cells were then recovered by the addition of 40 mL of CHO-serum-free media supplemented with 25 mM HEPES, and rocked gently in a 50 mL conical tube for 20 minutes prior to patch-clamp assay. […] The cell suspension was added to the cell inlet wells on an IonFlux HT population patch plate which had previously been rinsed and primed with deionized H2O. Test compounds were serially diluted in DMSO and then resuspended to the final test concentration in external recording solution, with, or without 40 μM acetylcholine added to the external recording solution; test compounds were then transferred to the lonFlux HT population patch plate. Internal recording solution (110 mM TrisPO4, 28 mM TrisBase, 0.1 mM CaCl2, 2 mM MgCl2, 11 mM EGTA, 4 mM MgATP) was added to the internal recording solution inlet wells on the IonFlux HT patch plate previously loaded with cells and test compounds, and the plate loaded into the IonFlux HT instrument. A protocol was executed on the IonFlux HT to trap the cells, break into the cells, and establish the whole-cell recording configuration; cells were voltage-clamped at a holding potential of −60 mV for the duration of the experiment, all experiments were conducted at room temperature, and the IonFlux HT injection pressure was 8 psi for solution applications. Upon establishing the whole-cell configuration, external recording solution was perfused into the recording chambers for 120 seconds and then 40 μM acetylcholine was applied for 1 second and immediately washed off with external recording solution for 60 seconds. The 40 μM acetylcholine-evoked α7 current served as the current response to which subsequent test compound effects, in the presence, or in the absence of 40 μM acetylcholine would be quantified relative to. Next, test compounds were evaluated at multiple concentrations for their ability to induce, or modulate α7 current responses; three concentrations of test compound were evaluated in ascending dose fashion per recording.
On the technique in general: The patch-clamp technique gives a direct electrical read-out from membranes.

For the compound `CC1(C)[C@@H](c2ccc(S(N)(=O)=O)nc2)[C@@H]1c1nc(-c2ccc(F)cc2F)no1` [Example B3, 5-{(1S,3S)-3-[3-(2,4-Difluorophenyl)-1,2,4-oxadiazol-5-yl]-2,2-dimethylcyclopropyl}pyridine-2-sulfonamide], under “read-out: α7 nAChR Potency”, the EC50 lay within 500 to 5000 nM. `CC1(C)[C@H](c2ccc(S(N)(=O)=O)nc2)[C@H]1c1nc(-c2cncc(C(F)(F)F)c2)no1` [Example A2, 5-[(1R,3R)-2,2-Dimethyl-3-{3-[5-(trifluoromethyl)pyridin-3-yl]-1,2,4-oxadiazol-5-yl}cyclopropyl]pyridine-2-sulfonamide]: the EC50 by setting is: (read-out: α7 nAChR EC50) 1400 nM; (read-out: α7 nAChR Potency) 500 to 5000 nM. As to `CC1(C)[C@@H](c2ccc(S(N)(=O)=O)nc2)[C@@H]1c1ncc(-c2ccccc2)o1` [Example 8, 5-[(1S,3S)-2,2-Dimethyl-3-(5-phenyl-1,3-oxazol-2-yl)cyclopropyl]pyridine-2-sulfonamide], the EC50 is 1500 nM (read-out: α7 nAChR EC50) and 500 to 5000 nM (read-out: α7 nAChR Potency). For `NS(=O)(=O)c1ccc([C@@H]2C[C@H]2c2nc(C3CCCC3)no2)cn1` (racemic) [Example C9, 5-[trans-2-(3-Cyclopentyl-1,2,4-oxadiazol-5-yl)cyclopropyl]pyridine-2-sulfonamide], the EC50 (read-out: α7 nAChR Potency) was 500 to 5000 nM. Take `CC1(C)[C@H](c2ccc(S(N)(=O)=O)nc2)[C@H]1c1nc(-c2cccc(C(F)(F)F)c2)no1` [Example A10, 5-[(1R,3R)-2,2-Dimethyl-3-{3-[3-(trifluoromethyl)phenyl]-1,2,4-oxadiazol-5-yl}cyclopropyl]pyridine-2-sulfonamide]: the EC50 (read-out: α7 nAChR Potency) lay in the range of 500 to 5000 nM. For `CC1(C)[C@@H](c2ccc(S(N)(=O)=O)nc2)[C@@H]1c1noc(-c2ccccc2)n1` (relative stereo) [Example 11, 5-[trans-2,2-Dimethyl-3-(5-phenyl-1,2,4-oxadiazol-3-yl)cyclopropyl]pyridine-2-sulfonamide], the EC50 by setting is: (read-out: α7 nAChR EC50) 990 nM; (read-out: α7 nAChR Potency) 500 to 5000 nM.

On to `CC1(C)[C@@H](c2ccc(S(N)(=O)=O)nc2)[C@@H]1c1nc(C2CCC2)no1` [Example B9, 5-[(1S,3S)-3-(3-Cyclobutyl-1,2,4-oxadiazol-5-yl)-2,2-dimethylcyclopropyl]pyridine-2-sulfonamide], for which the EC50 is, setting by setting: (read-out: α7 nAChR EC50) 620 nM; (read-out: α7 nAChR Potency) 500 to 5000 nM. As for `CC(C)(C)c1noc([C@H]2[C@H](c3ccc(S(N)(=O)=O)nc3)C2(C)C)n1` [Example B12, 5-[(1S,3S)-3-(3-tert-Butyl-1,2,4-oxadiazol-5-yl)-2,2-dimethylcyclopropyl]pyridine-2-sulfonamide], the EC50 was 1600 nM (read-out: α7 nAChR EC50) and 500 to 5000 nM (read-out: α7 nAChR Potency). The like results for `CC1(C)[C@@H](c2ccc(S(N)(=O)=O)cn2)[C@@H]1c1nc(-c2ccccc2)no1` (racemic) [Example G2, 6-[trans-2,2-Dimethyl-3-(3-phenyl-1,2,4-oxadiazol-5-yl)cyclopropyl]pyridine-3-sulfonamide] were, in that order, 970 nM and 500 to 5000 nM. As to `CC1(C)C(c2ccc(S(N)(=O)=O)nc2)C1c1nc2ccccc2o1` (single isomer, unassigned) [Example 1, 5-[trans-3-(1,3-Benzoxazol-2-yl)-2,2-dimethylcyclopropyl]pyridine-2-sulfonamide], the EC50 was 450 nM (read-out: α7 nAChR EC50) and 100 to 500 nM (read-out: α7 nAChR Potency). For `CC1(C)[C@@H](c2ccc(S(N)(=O)=O)nc2)[C@@H]1c1nc(-c2cccc(F)c2)no1` [Example B1, 5-{(1S,3S)-3-[3-(3-Fluorophenyl)-1,2,4-oxadiazol-5-yl]-2,2-dimethylcyclopropyl}pyridine-2-sulfonamide], the EC50 by setting is: (read-out: α7 nAChR EC50) 310 nM; (read-out: α7 nAChR Potency) 100 to 500 nM. As to `CC1(C)[C@@H](c2ccc(S(N)(=O)=O)cn2)[C@@H]1c1nc(C2CCC2)no1` [Example F13, 6-[(1S,3S)-3-(3-Cyclobutyl-1,2,4-oxadiazol-5-yl)-2,2-dimethylcyclopropyl]pyridine-3-sulfonamide], the EC50 (read-out: α7 nAChR Potency) fell in the range of 500 to 5000 nM. As for “6-[trans-3-(1,3-Benzoxazol-2-yl)-2,2-dimethylcyclopropyl]pyridine-3-sulfonamide [Example G1]”, the EC50 reads like this: (read-out: α7 nAChR EC50) 900 nM; (read-out: α7 nAChR Potency) 500 to 5000 nM. On to `CC1(C)[C@@H](c2ccc(S(N)(=O)=O)nc2)[C@@H]1c1nc(C2CC2)no1` [Example B11, 5-[(1S,3S)-3-(3-Cyclopropyl-1,2,4-oxadiazol-5-yl)-2,2-dimethylcyclopropyl]pyridine-2-sulfonamide], for which the EC50 (read-out: α7 nAChR Potency) was 500 to 5000 nM.

With `CC1(C)[C@@H](c2ccc(S(N)(=O)=O)nc2)[C@@H]1c1noc(-c2c(F)ccc(F)c2F)n1` (racemic) [Example C1, 5-{trans-2,2-Dimethyl-3-[5-(2,3,6-trifluorophenyl)-1,2,4-oxadiazol-3-yl]cyclopropyl}pyridine-2-sulfonamide], the EC50 is, setting by setting: (read-out: α7 nAChR EC50) 580 nM; (read-out: α7 nAChR Potency) 500 to 5000 nM. As for `NS(=O)(=O)c1ccc(C2CC2c2nc(-c3ccccc3)no2)cn1` (single isomer, unassigned) [Example 4, 5-[trans-2-(3-Phenyl-1,2,4-oxadiazol-5-yl)cyclopropyl]pyridine-2-sulfonamide], the EC50 reads like this: (read-out: α7 nAChR EC50) 400 nM; (read-out: α7 nAChR Potency) 100 to 500 nM. On to `CC1(C)[C@@H](c2nc(C3CCC3)no2)[C@@H]1c1ncc(S(N)(=O)=O)s1` (racemic) [Example D2, 2-[trans-3-(3-Cyclobutyl-1,2,4-oxadiazol-5-yl)-2,2-dimethylcyclopropyl]-1,3-thiazole-5-sulfonamide], for which the EC50 (read-out: α7 nAChR EC50) amounted to 1200 nM and the EC50 (read-out: α7 nAChR Potency) was in the range of 500 to 5000 nM. As to `NS(=O)(=O)c1cnc([C@@H]2C[C@H]2c2nc(-c3ccccc3)no2)s1` (racemic) [Example D8, 2-[trans-2-(3-Phenyl-1,2,4-oxadiazol-5-yl)cyclopropyl]-1,3-thiazole-5-sulfonamide], the EC50 is, setting by setting: (read-out: α7 nAChR EC50) 1000 nM; (read-out: α7 nAChR Potency) 500 to 5000 nM.

Regarding `CC1(C)[C@H](c2ccc(S(N)(=O)=O)cn2)[C@H]1c1nc(C2CCCCC2)no1` [Example E7, 6-[(1R,3R)-3-(3-Cyclohexyl-1,2,4-oxadiazol-5-yl)-2,2-dimethylcyclopropyl]pyridine-3-sulfonamide], under “read-out: α7 nAChR Potency”, the EC50 lay in the range of 500 to 5000 nM. Consider `CC1(C)C(c2ccc(S(N)(=O)=O)nc2)C1c1cc(-c2cccc(F)c2)on1` (single isomer, unassigned) [Example C13, 5-{trans-3-[5-(3-Fluorophenyl)isoxazol-3-yl]-2,2-dimethylcyclopropyl}pyridine-2-sulfonamide], for which the EC50 is 1100 nM (read-out: α7 nAChR EC50) and 500 to 5000 nM (read-out: α7 nAChR Potency).

Turning to `CC1(C)[C@@H](c2ccc(S(N)(=O)=O)nc2)[C@@H]1c1cc(C2CCCC2)no1` (relative stereo) [Example 12, 5-[trans-3-(3-Cyclopentylisoxazol-5-yl)-2,2-dimethylcyclopropyl]pyridine-2-sulfonamide], the EC50 is 1100 nM (read-out: α7 nAChR EC50) and 500 to 5000 nM (read-out: α7 nAChR Potency).

Consider `CC1(C)[C@@H](c2ccc(S(N)(=O)=O)nc2)[C@@H]1c1ncc(C2CCCC2)s1` [Example B16, 5-[(1S,3S)-3-(5-Cyclopentyl-1,3-thiazol-2-yl)-2,2-dimethylcyclopropyl]pyridine-2-sulfonamide], for which the EC50 is 1500 nM (read-out: α7 nAChR EC50) and 500 to 5000 nM (read-out: α7 nAChR Potency). In the case of `COc1ccc(Cl)cc1-c1noc([C@H]2[C@H](c3ccc(S(N)(=O)=O)nc3)C2(C)C)n1` [Example B2, 5-{(1S,3S)-3-[3-(5-Chloro-2-methoxyphenyl)-1,2,4-oxadiazol-5-yl]-2,2-dimethylcyclopropyl}pyridine-2-sulfonamide], the EC50 reads like this: (read-out: α7 nAChR EC50) 1700 nM; (read-out: α7 nAChR Potency) 500 to 5000 nM.
